Biological target: T1, KCNQ 2/3 channels (Homo sapiens, UniProt O43525+O43526)
T1 construct: expressed in transfected cells; host or cells: HEK293
Test: KCNQ 2/3 channel activation, thallium flux FLIPR assay (BTC-AM dye)
Format: cell-based
Conditions: for Emax: HEK293, maximum response relative to the response of 10 μM retigabine (set at 100%), HEK293 KCNQ2/KCNQ3 cells, read-out: % MAX; for EC50: HEK293 cells stably expressing human KCNQ2 and KCNQ3 subunits, thallium-induced fluorescence, 4 min compound incubation
Summary of the method: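 HEK293 cells stably expressing human KCNQ2/KCNQ3 were loaded with BTC-AM (3 μg/mL, 2 h, RT) and preincubated with compound for 4 min in pH 7.3 gluconate buffer containing 0.1 mM ouabain. Flux was triggered by 6 mM TlNO3/10 mM K2SO4 and read for 3 min; EC50 came from summed responses over basal, with maximum relative to 10 μM retigabine (100%).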

Emax | EC50 | SMILES
161% | 142 nM | O=C(CC1CC2CCC1C2)Nn1nc(NCc2ccccc2)c2ccccc2c1=O (racemic) [Example 34, (±)-N-[4-(benzylamino)-1-oxophthalazin-2(1H)-yl]-2-[(exo)-bicyclo[2.2.1]hept-2-yl]acetamide]
39.9% | 6870 nM | O=C(Cc1ccc(O)cc1)Nn1nc(N2CCOCC2)c2ccccc2c1=O [Example 144, 2-(4-hydroxyphenyl)-N-[4-(morpholin-4-yl)-1-oxophthalazin-2(1H)-yl]acetamide]
6.84% |  | O=C(Cc1ccc(-c2ccccc2)cc1)Nn1nc(N2CCOCC2)c2ccccc2c1=O [Example 158, 2-(biphenyl-4-yl)-N-[4-(morpholin-4-yl)-1-oxophthalazin-2(1H)-yl]acetamide]
22% |  | O=C(Cc1ccc(OCc2ccccc2)cc1)Nn1nc(N2CCOCC2)c2ccccc2c1=O [Example 164, 2-[4-(benzyloxy)phenyl]-N-[4-(morpholin-4-yl)-1-oxophthalazin-2(1H)-yl]acetamide]
131% | 1590 nM | CC(C)(CC(=O)Nn1nc(N2CCOCC2)c2ccccc2c1=O)c1ccccc1 [Example 33, 3-methyl-N-[4-(morpholin-4-yl)-1-oxophthalazin-2(1H)-yl]-3-phenylbutanamide]
136% | 3180 nM | O=C(CC1CC2CCC1C2)Nn1nc(C(=NO)c2ccccc2)c2ccccc2c1=O (racemic) [Example 120, (±)-2-[(exo)-bicyclo[2.2.1]hept-2-yl]-N-{4-[(Z)-(hydroxyimino)(phenyl)methyl]-1-oxophthalazin-2(1H)-yl}acetamide]
7.89% |  | O=C(Cc1ccccc1Cl)Nn1nc(N2CCOCC2)c2ccccc2c1=O [Example 151, 2-(2-chlorophenyl)-N-[4-(morpholin-4-yl)-1-oxophthalazin-2(1H)-yl]acetamide]
-1.83% |  | O=C(Cc1c(Cl)cccc1Cl)Nn1nc(N2CCOCC2)c2ccccc2c1=O [Example 178, 2-(2,6-dichlorophenyl)-N-[4-(morpholin-4-yl)-1-oxophthalazin-2(1H)-yl]acetamide]
93% |  | O=C(Cc1ccc(C(F)(F)F)cc1)Nn1nc(N2CCOCC2)c2ccccc2c1=O [Example 161, N-[4-(morpholin-4-yl)-1-oxophthalazin-2(1H)-yl]-2-[4-(trifluoromethyl)phenyl]acetamide]
145% | 14.6 nM | N#Cc1ccc(S(=O)(=O)c2nn(NC(=O)C[C@H]3C[C@@H]4CC[C@H]3C4)c(=O)c3ccccc23)cc1 (racemic) [Example 219, (±)-2-[(exo)-bicyclo[2.2.1]hept-2-yl]-N-{4-[(4-cyanophenyl)sulfonyl]-1-oxophthalazin-2(1H)-yl}acetamide]
145% | 447 nM | O=C(CC1CC2CCC1C2)Nn1nc(C2CCOCC2)c2ccccc2c1=O (racemic) [Example 28, (±)-2-[(exo)-bicyclo[2.2.1]hept-2-yl]-N-[1-oxo-4-(tetrahydro-2H-pyran-4-yl)phthalazin-2(1H)-yl]acetamide]
122% | 378 nM | CN(C)c1ccc(-c2nn(NC(=O)CC3CC4CCC3C4)c(=O)c3ccccc23)cn1 (racemic) [Example 47, (±)-2-[(exo)-bicyclo[2.2.1]hept-2-yl]-N-{4-[6-(dimethylamino)pyridin-3-yl]-1-oxophthalazin-2(1H)-yl}acetamide]
19.6% |  | O=C(Cc1ccc(Cl)cc1)Nn1nc(-c2cccnc2)c2ccccc2c1=O [Example 9, 2-(4-chlorophenyl)-N-[1-oxo-4-(pyridin-3-yl)phthalazin-2(1H)-yl]acetamide]
185% | 102 nM | CN(Cc1ccccc1)c1nn(NC(=O)CC(C)(C)c2ccccc2)c(=O)c2ccccc12 [Example 52, N-{4-[benzyl(methyl)amino]-1-oxophthalazin-2(1H)-yl}-3-methyl-3-phenylbutanamide]
155% | 2040 nM | O=C(CC1CC2CCC1C2)Nn1nc(C(=O)Nc2ccc(Cl)cc2)c2ccccc2c1=O (racemic) [Example 108, (±)-3-{[(exo)-bicyclo[2.2.1]hept-2-ylacetyl]amino}-N-(4-chlorophenyl)-4-oxo-3,4-dihydrophthalazine-1-carboxamide]
137% | 306 nM | COc1ccc(-c2nn(NC(=O)CC3CC4CCC3C4)c(=O)c3ccccc23)cn1 (racemic) [Example 26, (±)-2-[(exo)-bicyclo[2.2.1]hept-2-yl]-N-[4-(6-methoxypyridin-3-yl)-1-oxophthalazin-2(1H)-yl]acetamide]
122% | 31.8 nM | O=C(Cc1cc(F)cc(F)c1)Nn1nc(Oc2ccccc2)c2ccccc2c1=O [Example 38, 2-(3,5-difluorophenyl)-N-(1-oxo-4-phenoxyphthalazin-2(1H)-yl)acetamide]
78.5% | 1320 nM | O=C(Cc1ccc(Cl)cc1)Nn1nc(Sc2ccncc2)c2ccccc2c1=O [Example 191, 2-(4-chlorophenyl)-N-[1-oxo-4-(pyridin-4-ylsulfanyl)phthalazin-2(1H)-yl]acetamide]

Emax | EC50 | SMILES
124% | 858 nM | Cc1ccsc1-c1nn(NC(=O)Cc2ccc(Cl)cc2)c(=O)c2ccccc12 [Example 15, 2-(4-chlorophenyl)-N-[4-(3-methylthiophen-2-yl)-1-oxophthalazin-2(1H)-yl]acetamide]
105% | 221 nM | CN(Cc1ccccc1)c1nn(NC(=O)Cc2ccc(Cl)cc2)c(=O)c2ccccc12 [Example 36, N-{4-[benzyl(methyl)amino]-1-oxophthalazin-2(1H)-yl}-2-(4-chlorophenyl)acetamide]
136% | 67.4 nM | O=C(CC1CC2CCC1C2)Nn1nc(-c2cccs2)c2ccccc2c1=O (racemic) [Example 12, (±)-2-[(exo)-bicyclo[2.2.1]hept-2-yl]-N-[1-oxo-4-(thiophen-2-yl)phthalazin-2(1H)-yl]acetamide]
3.89% |  | O=C(CC1CCOC1)Nn1nc(N2CCOCC2)c2ccccc2c1=O (stereo not shown) [Example 66, N-[4-(morpholin-4-yl)-1-oxophthalazin-2(1H)-yl]-2-(tetrahydrofuran-3-yl)acetamide]
147% | 62.8 nM | O=C(CC1CC2CCC1C2)Nn1nc(N2CCCC2)c2ccccc2c1=O (racemic) [Example 23, (±)-2-[(exo)-bicyclo[2.2.1]hept-2-yl]-N-[1-oxo-4-(pyrrolidin-1-yl)phthalazin-2(1H)-yl]acetamide]
133% | 60.6 nM | O=C(CC1CC2CCC1C2)Nn1nc(-c2ccc(Cl)nc2)c2ccccc2c1=O (racemic) [Example 4, (±)-2-[(exo)-bicyclo[2.2.1]hept-2-yl]-N-[4-(6-chloropyridin-3-yl)-1-oxophthalazin-2(1H)-yl]acetamide]
18.7% |  | O=C(Cc1ccc2c(c1)OCO2)Nn1nc(N2CCOCC2)c2ccccc2c1=O [Example 174, 2-(1,3-benzodioxol-5-yl)-N-[4-(morpholin-4-yl)-1-oxophthalazin-2(1H)-yl]acetamide]
87.4% | 180 nM | O=C(Cc1ccc(Cl)cc1)Nn1nc(Oc2ccccc2)c2ccccc2c1=O [Example 127, 2-(4-chlorophenyl)-N-(1-oxo-4-phenoxyphthalazin-2(1H)-yl)acetamide]
146% | 296 nM | Cc1ccsc1-c1nn(NC(=O)Cc2cc(F)cc(F)c2)c(=O)c2ccccc12 [Example 14, 2-(3,5-difluorophenyl)-N-[4-(3-methylthiophen-2-yl)-1-oxophthalazin-2(1H)-yl]acetamide]
63.8% | 1320 nM | CCC(C)(C)OC(=O)NCc1nn(NC(=O)Cc2ccc(Cl)cc2)c(=O)c2ccccc12 [Example 182, 2-methylbutan-2-yl[(3-{[(4-chlorophenyl)acetyl]amino}-4-oxo-3,4-dihydrophthalazin-1-yl)methyl]carbamate]
62.7% | 1320 nM | CC(C)(C)COC(=O)NCc1nn(NC(=O)Cc2ccc(Cl)cc2)c(=O)c2ccccc12 [Example 184, 2,2-dimethylpropyl[(3-{[(4-chlorophenyl)acetyl]amino}-4-oxo-3,4-dihydrophthalazin-1-yl)methyl]carbamate]
107% | 383 nM | O=C(Cc1ccc(Cl)cc1)Nn1nc(-c2ccnc(Cl)c2)c2ccccc2c1=O [Example 49, 2-(4-chlorophenyl)-N-[4-(2-chloropyridin-4-yl)-1-oxophthalazin-2(1H)-yl]acetamide]
26.5% |  | CS(=O)(=O)NCc1nn(NC(=O)Cc2ccc(Cl)cc2)c(=O)c2ccccc12 [Example 80, 2-(4-chlorophenyl)-N-[4-{[(methylsulfonyl)amino]methyl}-1-oxophthalazin-2(1H)-yl]acetamide]
69.9% | 306 nM | Cc1cccc(CC(=O)Nn2nc(S(=O)(=O)c3ccccc3)c3ccccc3c2=O)c1 [Example 207, 2-(3-methylphenyl)-N-[1-oxo-4-(phenylsulfonyl)phthalazin-2(1H)-yl]acetamide]
173% | 2700 nM | O=C(CC1CC2CCC1C2)Nn1nc(Cc2ccncc2)c2ccccc2c1=O (racemic) [Example 97, (±)-2-[(exo)-bicyclo[2.2.1]hept-2-yl]-N-[1-oxo-4-(pyridin-4-ylmethyl)phthalazin-2(1H)-yl]acetamide]
139% | 209 nM | Cc1ccsc1-c1nn(NC(=O)C[C@@H]2C[C@@H]3C=C[C@H]2C3)c(=O)c2ccccc12 [Example 17, 2-[(1S,2S,4S)-bicyclo[2.2.1]hept-5-en-2-yl]-N-[4-(3-methylthiophen-2-yl)-1-oxophthalazin-2(1H)-yl]acetamide]
142% | 331 nM | O=C(CC1CC2CCC1C2)Nn1nc(N2CCOCC2)c2ccccc2c1=O (racemic) [Example 3, (±)-2-[(exo)-bicyclo[2.2.1]hept-2-yl]-N-[4-(morpholin-4-yl)-1-oxophthalazin-2(1H)-yl]acetamide]

Source: US8859549B2, “Potassium channel modulators” (AbbVie, Inc., priority 2011, dated 2014)
